Here are results for two compounds from patent publication US20250262167A1, “COMPOUNDS, TARGETS AND PATHWAYS FOR MACROPHAGE MODULATION” (Massachusetts Institute of Technology, priority 2020, published 2025).

The test system of assay [1] is mouse bone marrow macrophages (BMMs). The assay is described as follows: Development and function of TAM/M2-like macrophages in vitro (qPCR, flow cytometry). It counts as cell-based. On the procedure: DEGs were identified by edgeR at P<0.05 with at least 2 fold-change. Data for genes that were not classified as differentially expressed are plotted in black. […] Mouse BMMs were cultured in normal medium with or without 2.5 μM thiostrepton for 24 hrs (group 1), or cultured in B16F10 tumor cell conditioned medium (CM) with or without 2.5 μM thiostrepton for 24 hrs (group 2), or cultured with B16F10 tumor cell CM for 24 hrs first and then treated with 2.5 μM thiostrepton for another 24 hrs (group 3). The transcript levels of the indicated genes were quantified by qPCR. Data were summarized from two independent experiments. […] Mouse BMMs were treated with thiostrepton for 24 hrs. Untreated and treated macrophages were co-cultured with equal number of B16F10 melanoma cells for 12 hrs. The number of tumor cells were quantified by flow cytometry after subtracting macrophages from total number of cells. Data were summarized from three independent experiments. ** P<0.01 by T-test.
Expression of MHCII, CD80, iNOS, Arg1 and CD206 were quantified by flow cytometry. Shown are representative staining profiles of treated (red) and untreated (dark) TAMs from two independent experiments. […] Alternatively, mouse BMMs were polarized with IL-4/IL-13 (group 3) or lactic acid (group 5) for 24 hrs first and then either not treated or treated with […] thiostrepton for another 24 hrs. The transcript levels of the indicated genes were quantified by qPCR. Data are summarized from two independent experiments.
Mouse BMMs were not treated or treated with […] thiostrepton for 24 hours in normal medium (group 1) or in the presence of IL4/IL13 (group 2), or mouse BMMs were polarized with IL4/IL13 for 24 hours and then either not treated or treated with […] thiostrepton for 24 hours (group 3). RNA was isolated and the transcript levels of the indicated genes were quantified by PCR. Data, shown as mean±s.d., were summarized from two independent experiments. * P<0.05 and ** P<0.01 by T-test. […] Data are shown as mean±s.e.m. FIGS. 19C-19D show flow cytometry analysis of TAM (F4/80^+CD11b^+Ly6C^−Ly6G^−), inflammatory monocytes (F4/80′^intCD11b^+Ly6C^+Ly6G^−) and monocytes (F4/80^−CD11b^+Ly6C^+Ly6G^+) in the tumors of mice treated with DMSO, TA99, cucurbitacin I, and cucurbitacin I plus TA99 18 days after tumor engraftment. Shown are representative F4/80 versus CD11b staining profiles gating on CD45+ cells and MHCII histograms gating on macrophages from c.
Mouse bone marrow-derived macrophages (mBMM) were prepared as described previously^54. Briefly, fresh bone marrow cells were isolated from B6 mice. Cells were plated into 6-well plate with 1×10^6/mL in complete RPMI with 2-mercaptoethanol and cultured for 6 days with fresh medium change every 2 days. mBMMs were differentiated to resemble TAMs in the presence of 10 ng/mL mIL-4 and mIL-13 (Peprotech) or 25 mM lactate acid for 24 hrs or tumor conditioned medium (CM). To prepare CM, 70% confluent B16F10 cultured were replaced with fresh medium and the tumor medium was collected and filtered ([…]) 24 hrs later. The mixture of 3 volumes of tumor medium with 1 volume of complete RPMI for mBMM serves as the CM. Expression of Arg, Fizz1 and Vegfa were quantified by qPCR to assess the development of TAMs. Other genes of Tnf, Il1b, Nos2, Cxcl2, Ccl5, Ym1 and Tgfb serve as macrophage activating markers. To assay the tumor growth inhibition, mBMMs (10,000 cells per well in 96 well plate) were treated with thiostrepton for 24 hrs and then cocultured with equal number of B16 melanoma cells in fresh complete RPMI for 12 hrs. The conditioned medium treated or not treated with thiostrepton were collected and filtered. The numbers of B16 melanoma cells were cultured for 12 hrs with conditioned medium or conditioned medium heated at 95° C. for 5 min. Tumor cells were quantified by flow cytometry to determine the macrophage-dependent killing function. […]

For assay [2], the system named is luciferase-expressing human B lymphoma cells (GMB). The experiment in a line: Human B lymphoma (GMB-luc) model in NSG mice. The class given is in vivo, mouse. On the procedure:
NSG mice were grafted with 1×10^7 GMB-luc cells and dosed twice at 14 and 21 days later with 0.5 mg/kg Rituximab (Ritu) and/or 300 mg/kg thiostrepton (Thio). Tumor burden was monitored (FIG. 18A) and quantified (FIG. 18B) by imaging the luciferase activity in vivo (n=5˜6 mice per group). Data are shown as mean±s.e.m. At day 28 post tumor engraftment, bone marrow cells were analyzed by flow cytometry (FIG. 18C). Shown are representative F4/80 versus CD11b staining profiles gating on CD45^+ cells (top panel), Ly6C versus Ly6G staining profiles gating on F4/80^+CD11b^+ cells (bottom panel). MHCII histograms gating on macrophages from FIG. 18C. […] Data shown are mean±s.d. * P<0.05, ** P<0.01 and *** P<0.001, by T-test.
For the melanoma model, an inoculum of 1×10^6 B16F10 tumor cells was injected subcutaneously on the flank of 8- to 10-week-old male B6 mice in […] sterile PBS. Six days following tumor inoculation, mice were randomized into 4 treatment groups including control (PBS or DMSO), tumor-targeting antibody TA99, compound, compound plus TA99. TA99 was administered at […] per dose intraperitoneally (I.P.). The compound was administrated at the indicated dosage by either I.P. or paratumor injection subcutaneously (S.C.). All mice were dosed at day 6 and day 12 post tumor inoculation for a total of 2 treatments. Tumor size was measured as an area (longest dimension×perpendicular dimension) at day 6, day 12 and day 18 post tumor inoculation. Mice were euthanized for analysis at day 18 post tumor inoculation. For the lymphoma model, 1×10^7 GMB cells were injected through tail intravenously in 100 μL sterile PBS into 10- to 12-week-old male NSG mice. Mice were treated two weeks post tumor cell engraftment. Tumor-targeting antibody Rituxumab (InvivoGen) was administered at 10 mg/kg intraperitoneally. The compound was administrated I.P. at the indicated dosage. All mice were dosed at week 2 and week 3 post tumor injection for a total of 2 treatments. […]

Assay [3] concerns human primary macrophages.
Procedure: Total protein lysates were isolated from either mouse ImKCs with or without DPI treatment for 6 and 12 hrs or human primary macrophages with or without DPI treatment for 12 hrs at the indicated concentrations. Equal amounts of total proteins from whole-cell lysates were subjected to Western blotting analysis. β-actin was used as a loading control. Shown are representative data of two independent experiments. […] P values were calculated by student t-test. * P<0.05, ** P<0.01. n.s. not significant.
Proteins were extracted from cells with RIPA buffer. Protein concentration was quantified by BCA Protein Assay Kit (Pierce Biotechnology). Samples containing 20 μg total protein were resolved on a 10% SDS-PAGE gel and electro-transferred onto a PVDF membrane (Millipore Corporation). The membrane was blocked in 5% (w/v) fat-free milk in PBST (PBS containing 0.1% Tween-20). […] The blot was washed twice in PBST and then incubated with anti-Rabbit HRP-conjugated secondary antibody (Cell Signaling Technology, 1:2000) in 5% fat-free milk. The membrane was washed twice in PBST and subjected to protein detection by ECL Plus Western Blotting Detection System (GE Healthcare) before being exposed to a Kodak BioMax XAR film.
Where [4] appears, read: BMMs in B16F10 conditioned medium, 2.5 μM, 24 hrs, qPCR.
Where [5] appears, read: BMMs in B16F10 conditioned medium, flow cytometry.
The mark [6] stands for this setting: IL-4/IL-13 and lactic acid-polarized BMMs, qPCR.

Where two headings read alike, the source gives them in different places.

For the compound `C=C(NC(=O)C(=C)NC(=O)c1csc(C2=N[C@@H]3c4csc(n4)[C@H]4NC(=O)c5csc(n5)[C@H]([C@](C)(O)[C@@H](C)O)NC(=O)[C@H]5CSC(=N5)/C(=C/C)NC(=O)[C@H]([C@@H](C)O)NC(=O)c5csc(n5)[C@]3(CC2)NC(=O)[C@H](C)NC(=O)C(=C)NC(=O)[C@H](C)NC(=O)[C@H]([C@@H](C)CC)N[C@@H]2C=Cc3c([C@H](C)O)cc(nc3[C@H]2O)C(=O)O[C@@H]4C)n1)C(N)=O` [Thiostrepton], in assay [1] (setting [4]), the “expression of M1-associated genes Tnf, Il1b, Cxcl2 and Nos2” value is given as “up-regulated”; the “expression of TAM/M2-associated genes Arg1, Fizz1, Vegfa, Ym1 and Tgfb” value is “inhibited”. Moreover, in assay [1] (setting [5]), the ARG1 entry was “down-regulation”; the “MHCII, CD80 and iNOS” value was “up-regulation”. Also, in assay [1] (setting [6]), the “expression of Arg1, Fizz1, Ym1 and Tgfb” value is reported as “inhibited”; the “expression of Tnf, Il1b, Cxcl2 and Ccl5” value is “elevated”. Further, the “tumor burden in the bone marrow” value in assay [2] (alone, 300 mg/kg, luciferase imaging) is “significantly reduced”. The “tumor burden in the bone marrow, with rituximab” value in assay [2] (together with rituximab, luciferase imaging) is on record as “significantly reduced”. The “F4/80+CD11b+ macrophages with higher MHCII in bone marrow” value in assay [2] (vs vehicle or rituximab) was “higher percentages”.
`c1ccc2c(c1)[I+]c1ccccc1-2` [Diphenyleneiodonium chloride]: the blood glucose result is, setting by setting: (15 and 30 min after glucose injection) “significantly lower levels”; (6 hours after DPI 2 mg/kg i.p.) “significantly lower level”. Moreover, in assay [3] (50 nM, 24 hours, RNAseq), the “transcription of genes in the glycolysis pathway” value was “stimulates transcription”. In assay [3] (human primary macrophages, dose- and time-dependent), the “HK, GAPDH, LDHA and enolase at the protein level” value is on record as “upregulation”.
